This passage reports MIC and MBC results from ChEMBL document CHEMBL1671766, “In vitro activities of several antimicrobial agents against recently isolated and genotyped Chlamydia trachomatis urogenital serovars D through K” (2010).

Type in all cases: functional, LLC-MK2
Test [1] deals with Chlamydia trachomatis. Nature of the test: Antimicrobial activity against Chlamydia trachomatis serovar E infected in […] monolayers assessed as reduction in number of microbial inclusions after 48 hrs.
Test [2] concerns Chlamydia trachomatis. Nature of the test: Bactericidal activity against Chlamydia trachomatis serovar D infected in […] monolayers assessed as reduction in number of microbial inclusions after 48 hrs.
Test [3] concerns Chlamydia trachomatis. The test is described as follows: Antimicrobial activity against Chlamydia trachomatis UW-36 serovar J infected in […] monolayers assessed as reduction in number of microbial inclusions after 48 hrs. As to conditions: J/UW-36, 48 h.
Test [4] concerns Chlamydia trachomatis. The test is described as follows: Bactericidal activity against Chlamydia trachomatis serovar H infected in […] monolayers assessed as reduction in number of microbial inclusions after 48 hrs.
Test [5] deals with Chlamydia trachomatis. Nature of the test: Antimicrobial activity against Chlamydia trachomatis serovar D infected in […] monolayers assessed as reduction in number of microbial inclusions after 48 hrs.
In test [6] the test system is Chlamydia trachomatis. The test is described as follows: Antimicrobial activity against Chlamydia trachomatis serovar J infected in […] monolayers assessed as reduction in number of microbial inclusions after 48 hrs.
Test [7] deals with Chlamydia trachomatis. The test is described as follows: Antimicrobial activity against Chlamydia trachomatis serovar F infected in […] monolayers assessed as reduction in number of microbial inclusions after 48 hrs.
Test [8] deals with Chlamydia trachomatis. The test is described as follows: Bactericidal activity against Chlamydia trachomatis serovar K infected in […] monolayers assessed as reduction in number of microbial inclusions after 48 hrs.
The subject of test [9] is Chlamydia trachomatis. The test is described as follows: Antimicrobial activity against Chlamydia trachomatis serovar H infected in […] monolayers assessed as reduction in number of microbial inclusions after 48 hrs.
Test [10] relates to Chlamydia trachomatis. Nature of the test: Antimicrobial activity against Chlamydia trachomatis serovar I infected in […] monolayers assessed as reduction in number of microbial inclusions after 48 hrs.
For test [11], the system named is Chlamydia trachomatis. The test is described as follows: Antimicrobial activity against Chlamydia trachomatis Bour serovar E infected in […] monolayers assessed as reduction in number of microbial inclusions after 48 hrs.
The subject of test [12] is Chlamydia trachomatis. Nature of the test: Antimicrobial activity against Chlamydia trachomatis serovar K infected in […] monolayers assessed as reduction in number of microbial inclusions after 48 hrs.
Test [13] relates to Chlamydia trachomatis. The test is described as follows: Bactericidal activity against Chlamydia trachomatis serovar I infected in […] monolayers assessed as reduction in number of microbial inclusions after 48 hrs.
Test [14] has as its system Chlamydia trachomatis. The test is described as follows: Bactericidal activity against Chlamydia trachomatis serovar G infected in […] monolayers assessed as reduction in number of microbial inclusions after 48 hrs.
The test system of test [15] is Chlamydia trachomatis. Nature of the test: Antimicrobial activity against Chlamydia trachomatis Ic Cal-8 serovar D infected in […] monolayers assessed as reduction in number of microbial inclusions after 48 hrs.
Test [16] has as its system Chlamydia trachomatis. Nature of the test: Antimicrobial activity against Chlamydia trachomatis serovar G infected in […] monolayers assessed as reduction in number of microbial inclusions after 48 hrs.
In test [17] the test system is Chlamydia trachomatis. Nature of the test: Bactericidal activity against Chlamydia trachomatis serovar E infected in […] monolayers assessed as reduction in number of microbial inclusions after 48 hrs.
Test [18] has as its system Chlamydia trachomatis. The test is described as follows: Antimicrobial activity against Chlamydia trachomatis 580 serovar H infected in […] monolayers assessed as reduction in number of microbial inclusions after 48 hrs.
Test [19] has as its system Chlamydia trachomatis. Nature of the test: Bactericidal activity against Chlamydia trachomatis serovar J infected in […] monolayers assessed as reduction in number of microbial inclusions after 48 hrs.
Test [20] has as its system Chlamydia trachomatis. The test is described as follows: Bactericidal activity against Chlamydia trachomatis serovar F infected in […] monolayers assessed as reduction in number of microbial inclusions after 48 hrs.

Each structure is given as a SMILES string.

For `CC[C@H]1OC(=O)[C@H](C)[C@@H](O[C@H]2C[C@@](C)(OC)[C@@H](O)[C@H](C)O2)[C@H](C)[C@@H](O[C@@H]2O[C@H](C)C[C@H](N(C)C)[C@H]2O)[C@](C)(O)C[C@@H](C)CN(C)[C@H](C)[C@@H](O)[C@]1(C)O` [AZITHROMYCIN], the MIC in the test on Chlamydia trachomatis [1] is 0.25 µg/mL; with Chlamydia trachomatis [3], 0.5 µg/mL; in the test with Chlamydia trachomatis [5], 0.25 µg/mL; in the test on Chlamydia trachomatis [6], 0.25 µg/mL; in the test with Chlamydia trachomatis [7], 0.5 µg/mL; in the test on Chlamydia trachomatis [9], 0.25 µg/mL. The MIC came out at 0.5 µg/mL with Chlamydia trachomatis [10]; 0.25 µg/mL in the test on Chlamydia trachomatis [11]; 0.5 µg/mL in the test with Chlamydia trachomatis [12]; 0.25 µg/mL in the test with Chlamydia trachomatis [15]; 0.5 µg/mL in the test with Chlamydia trachomatis [16]; 0.25 µg/mL with Chlamydia trachomatis [18]. For the same compound, the MBC with Chlamydia trachomatis [2] is 0.5 µg/mL; with Chlamydia trachomatis [4] it was 1 µg/mL; in the test on Chlamydia trachomatis [8] it was 0.5 µg/mL; in the test with Chlamydia trachomatis [13] it was 1 µg/mL; in the test on Chlamydia trachomatis [14] it was 1 µg/mL; in the test on Chlamydia trachomatis [15] it was 1 µg/mL. Also, the results for the MBC in the test on Chlamydia trachomatis [17], in the test with Chlamydia trachomatis [19] and in the test with Chlamydia trachomatis [20] were 1 µg/mL, 0.5 µg/mL and 0.5 µg/mL, respectively.

For the compound `CC[C@H]1OC(=O)[C@H](C)[C@@H](O[C@H]2C[C@@](C)(OC)[C@@H](O)[C@H](C)O2)[C@H](C)[C@@H](O[C@@H]2O[C@H](C)C[C@H](N(C)C)[C@H]2O)[C@](C)(OC)C[C@@H](C)C(=O)[C@H](C)[C@@H](O)[C@]1(C)O` [CLARITHROMYCIN], the MIC is 0.015 µg/mL in the test on Chlamydia trachomatis [1]; 0.06 µg/mL in the test with Chlamydia trachomatis [3]; 0.03 µg/mL with Chlamydia trachomatis [5]; 0.03 µg/mL with Chlamydia trachomatis [6]; 0.015 µg/mL in the test on Chlamydia trachomatis [7]; 0.03 µg/mL with Chlamydia trachomatis [9]. The MIC with Chlamydia trachomatis [10] was 0.015 µg/mL; with Chlamydia trachomatis [11] it was 0.03 µg/mL; with Chlamydia trachomatis [12], 0.015 µg/mL; with Chlamydia trachomatis [15], 0.03 µg/mL; with Chlamydia trachomatis [16], 0.03 µg/mL; with Chlamydia trachomatis [18], 0.06 µg/mL. The MBC in the test with Chlamydia trachomatis [2] came to 0.03 µg/mL; with Chlamydia trachomatis [4] it was 0.06 µg/mL; in the test on Chlamydia trachomatis [8] it was 0.03 µg/mL; with Chlamydia trachomatis [13] it was 0.03 µg/mL; with Chlamydia trachomatis [14] it was 0.06 µg/mL; in the test on Chlamydia trachomatis [15], 0.06 µg/mL. Also, the MBC with Chlamydia trachomatis [17] is 0.03 µg/mL; in the test with Chlamydia trachomatis [19], 0.06 µg/mL; with Chlamydia trachomatis [20], 0.03 µg/mL.

In the case of `C[C@H]1c2cccc(O)c2C(=O)C2=C(O)[C@]3(O)C(=O)C(C(N)=O)=C(O)[C@@H](N(C)C)[C@@H]3[C@@H](O)[C@@H]21.O` [DOXYCYCLINE], the MIC with Chlamydia trachomatis [1] was determined as 0.03 µg/mL; in the test on Chlamydia trachomatis [3], 0.5 µg/mL; with Chlamydia trachomatis [5], 0.03 µg/mL; in the test on Chlamydia trachomatis [6], 0.06 µg/mL; with Chlamydia trachomatis [7] it was 0.03 µg/mL; in the test with Chlamydia trachomatis [9] it was 0.03 µg/mL. Moreover, the MIC was determined as 0.06 µg/mL in the test on Chlamydia trachomatis [10]; 0.03 µg/mL in the test on Chlamydia trachomatis [11]; 0.03 µg/mL in the test with Chlamydia trachomatis [12]; 0.03 µg/mL with Chlamydia trachomatis [15]; 0.03 µg/mL in the test on Chlamydia trachomatis [16]; 0.06 µg/mL with Chlamydia trachomatis [18]. Further, the MBC in the test on Chlamydia trachomatis [2], in the test with Chlamydia trachomatis [4], with Chlamydia trachomatis [8], with Chlamydia trachomatis [13], with Chlamydia trachomatis [14] and with Chlamydia trachomatis [15] was 0.06 µg/mL each time. Moreover, the MBC in the test on Chlamydia trachomatis [17], with Chlamydia trachomatis [19] and with Chlamydia trachomatis [20] was 0.06 µg/mL each time.

For `CC[C@H]1OC(=O)[C@H](C)[C@@H](O[C@H]2C[C@@](C)(OC)[C@@H](O)[C@H](C)O2)[C@H](C)[C@@H](O[C@@H]2O[C@H](C)C[C@H](N(C)C)[C@H]2O)[C@](C)(O)C[C@@H](C)C(=O)[C@H](C)[C@@H](O)[C@]1(C)O` [ERYTHROMYCIN], the MIC with Chlamydia trachomatis [1] was determined as 0.5 µg/mL; in the test with Chlamydia trachomatis [3] it was 0.5 µg/mL; in the test on Chlamydia trachomatis [5] it was 0.5 µg/mL; with Chlamydia trachomatis [6] it was 1 µg/mL; in the test with Chlamydia trachomatis [7], 0.5 µg/mL; in the test with Chlamydia trachomatis [9], 0.5 µg/mL. For the same compound, the MIC in the test on Chlamydia trachomatis [10] is 0.5 µg/mL; with Chlamydia trachomatis [11], 0.5 µg/mL; with Chlamydia trachomatis [12], 0.5 µg/mL; with Chlamydia trachomatis [15] it was 0.5 µg/mL; with Chlamydia trachomatis [16] it was 0.5 µg/mL; in the test on Chlamydia trachomatis [18], 1 µg/mL. The minimum bactericidal concentration (MBC) with Chlamydia trachomatis [2], in the test on Chlamydia trachomatis [4], in the test with Chlamydia trachomatis [8], in the test with Chlamydia trachomatis [13], in the test on Chlamydia trachomatis [14] and with Chlamydia trachomatis [15] was 1 µg/mL throughout. Moreover, the results for the MBC with Chlamydia trachomatis [17], with Chlamydia trachomatis [19] and in the test with Chlamydia trachomatis [20] were 1 µg/mL, 2 µg/mL and 1 µg/mL, respectively.

In the case of `C[C@H]1COc2c(N3CCN(C)CC3)c(F)cc3c(=O)c(C(=O)O)cn1c23.C[C@H]1COc2c(N3CCN(C)CC3)c(F)cc3c(=O)c(C(=O)O)cn1c23.O` [LEVOFLOXACIN], the MIC in the test on Chlamydia trachomatis [1], with Chlamydia trachomatis [3], with Chlamydia trachomatis [5], in the test on Chlamydia trachomatis [6], with Chlamydia trachomatis [7] and in the test on Chlamydia trachomatis [9] was 0.5 µg/mL in each case. In addition, the MIC in the test on Chlamydia trachomatis [10] amounted to 0.5 µg/mL; in the test on Chlamydia trachomatis [11], 0.5 µg/mL; in the test on Chlamydia trachomatis [12], 0.5 µg/mL; in the test with Chlamydia trachomatis [15], 0.5 µg/mL; with Chlamydia trachomatis [16] it was 0.25 µg/mL; with Chlamydia trachomatis [18], 0.5 µg/mL. For the same compound, the MBC in the test with Chlamydia trachomatis [2], in the test with Chlamydia trachomatis [3], in the test on Chlamydia trachomatis [4], in the test on Chlamydia trachomatis [8], with Chlamydia trachomatis [11] and with Chlamydia trachomatis [13] was 0.5 µg/mL in each case. Further, the MBC in the test with Chlamydia trachomatis [14] was 0.25 µg/mL; in the test with Chlamydia trachomatis [15], 0.5 µg/mL; in the test on Chlamydia trachomatis [17] it was 0.5 µg/mL; in the test with Chlamydia trachomatis [18] it was 0.5 µg/mL; in the test with Chlamydia trachomatis [19], 0.5 µg/mL; with Chlamydia trachomatis [20] it was 0.5 µg/mL.
